Experimental data reported in US9464092B2, “Transient protection of normal cells during chemotherapy” (G1 Therapeutics, Inc., priority 2013, dated 2016).
Read-outs that look alike come from different tables or passages of the source.

Columns and labels:
CDK2/CyclinA = CDK2/CyclinA (Homo sapiens (Human), UniProt P24941); test: CDK2/CyclinA kinase assay (Nanosyn, Caliper microfluidic); format: biochemical; conditions: for IC50: read-out: CDK2/CycA IC50
Procedure: (§1) Selected compounds disclosed herein were tested in CDK4/cyclinD1, CDK6/CycD3 CDK2/CycA and CDK2/cyclinE kinase assays by Nanosyn (Santa Clara, Calif.) to determine their inhibitory effect on these CDKs. The assays were performed using microfluidic kinase detection technology (Caliper Assay Platform). The compounds were tested in 12-point dose-response format in singlicate at Km for ATP. Phosphoacceptor substrate peptide concentration used was 1 μM for all assays and Staurosporine was used as the reference compound for all assays. Specifics of each assay are as described below:
CDK2/CyclinA: Enzyme concentration: 0.2 nM; ATP concentration: 50 μM; Incubation time: 3 hr.

[1] = system: HS68 cells (human skin fibroblast cell line (Rb-positive)); test: G1 arrest (cellular G1 and S-phase) assay; format: cell-based
Procedure: For determination of cellular fractions in various stages of the cell cycle following various treatments, HS68 cells (human skin fibroblast cell line (Rb-positive)) were stained with propidium iodide staining solution and run on Dako Cyan Flow Cytometer. The fraction of cells in G0-G1 DNA cell cycle versus the fraction in S-phase DNA cell cycle was determined using FlowJo 7.2 0.2 analysis.
The compounds listed in Table 1 were tested for their ability to arrest HS68 cells at the G1 phase of the cell cycle.

CDK2/CyclinE = CDK2/CyclinE (Homo sapiens (Human), UniProt P24941); test: CDK2/CyclinE kinase assay (Nanosyn, Caliper microfluidic); format: biochemical; conditions: for IC50: read-out: CDK2/CycE IC50
Procedure: as §1, with “assays.” for “assays. Specifics of each assay are as described below:”

CDK4/CyclinD1 = CDK4/CyclinD1 (Homo sapiens (Human), UniProt P11802); test: CDK4/CyclinD1 kinase assay (Nanosyn, Caliper microfluidic); format: biochemical; conditions: Table 2; read-out: CDK4/CycD1 IC50
Procedure: as §1
CDK4/CyclinD1: Enzyme concentration: 1 nM; ATP concentration: 200 μM; Incubation time: 10 hr.

HSPCs (bone marrow) = test: HSPC proliferation in bone marrow by EdU incorporation after oral gavage; format: in vivo, mice
Procedure: Mice were then sacrificed at the indicated times (0, 12, 24, 36, or 48 hours following compound administration), and bone marrow was harvested (n=3 mice per time point), as previously described (Johnson et al. J. Clin. Invest. (2010) 120(7), 2528-2536). Four hours before the bone marrow was harvested, mice were treated with 100 μg of EdU by intraperitoneal injection (Invitrogen). Bone marrow mononuclear cells were harvested and immunophenotyped using previously described methods and percent EdU positive cells were then determined (Johnson et al. J. Clin. Invest. (2010) 120(7), 2528-2536). In brief, HSPCs were identified by expression of lineage markers (Lin-), Sca1 (S+), and c-Kit (K+).
Four hours before animals were sacrificed and the bone marrow was harvested, mice were treated with 100 μg of EdU by intraperitoneal injection. Three mice per group were sacrificed at 12 hours and the remaining three animals per group were sacrificed at 24 hours. Results are shown in FIG. 6A as the ratio of EdU positive cells for treated animals at 12 or 24 hour time points compared to control.
Further experiments were completed with Compound T examining dose response and longer periods of compound treatment. […] […].
Both compounds were administered at 150 mg/kg by oral gavage. One hour prior to harvesting bone marrow, EdU was IP injected to label cycling cells. Bone marrow was harvested at 12, 24, 36, and 48 hours after compound treatment and the percentage of EdU positive HSPC cells was determined at each time point.

[2] = Mouse pharmacokinetics (oral gavage / intravenous); format: in vivo, mice; conditions: for AUC(0-inf) / clearance / Vd: iv, 10 mg/kg i.v.; for Vd: read-out: Vss
[3] = mouse, plasma, po, 30 mg/kg, mouse, 30 mg/kg oral gavage, read-out: t1/2 p.o. (converted)
[4] = plasma, mouse, 30 mg/kg oral gavage

Sequence of CDK4/CyclinD1 (P11802 whole entry, species assumed): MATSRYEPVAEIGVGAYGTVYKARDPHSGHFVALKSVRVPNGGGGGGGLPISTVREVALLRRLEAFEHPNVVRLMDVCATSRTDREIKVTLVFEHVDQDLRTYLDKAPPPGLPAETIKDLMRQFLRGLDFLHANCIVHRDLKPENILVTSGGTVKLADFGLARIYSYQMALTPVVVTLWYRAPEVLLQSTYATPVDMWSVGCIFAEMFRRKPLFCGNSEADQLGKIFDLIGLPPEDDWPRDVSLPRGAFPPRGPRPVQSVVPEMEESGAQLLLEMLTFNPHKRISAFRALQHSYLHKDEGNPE
Sequence of CDK4/CyclinD1 (P24385 whole entry partner, species assumed): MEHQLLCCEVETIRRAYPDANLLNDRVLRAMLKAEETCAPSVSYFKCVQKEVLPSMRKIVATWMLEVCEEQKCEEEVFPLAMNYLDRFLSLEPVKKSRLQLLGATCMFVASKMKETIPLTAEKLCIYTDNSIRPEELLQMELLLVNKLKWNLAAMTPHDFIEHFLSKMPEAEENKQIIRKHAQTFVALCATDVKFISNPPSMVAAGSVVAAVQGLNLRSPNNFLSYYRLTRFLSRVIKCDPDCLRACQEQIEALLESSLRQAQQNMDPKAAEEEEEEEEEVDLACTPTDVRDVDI

SMILES	Fold Selectivity (CDK2/CycA/CDK4) (CDK2/CyclinA; Table 2)	IC50 (CDK2/CyclinA; Table 2)	Fold Selectivity (CDK2/CycE/CDK4) (CDK2/CyclinE; Table 2)	IC50 (CDK2/CyclinE; Table 2)	IC50 (CDK4/CyclinD1)	other results
O=C1NCC2(CCCCC2)n2c1cc1cnc(Nc3ccc(N4CCNCC4)cn3)nc12 [Compound Q]						EdU incorporation into HSPCs at 12 and 24 hours compared to control (HSPCs (bone marrow); 150 mg/kg oral gavage): some reduction at 12 hours and started to return to baseline at 24 hours; G1-arrest of bone marrow stem cells (HSPC) (HSPCs (bone marrow); oral gavage, mice): dose dependent, transient, and reversible G1-arrest; oral bioavailability (in words) ([2]; mice): low; F ([2]; mouse): 2%; half-life [2, 3]: 48 min; AUC(0-inf) ([2]; plasma, mouse): 0.95 µM·h; clearance ([2]; plasma, mouse): 44 mL/min/kg; Vd ([2]; plasma, mouse): 5.2 L/kg; AUC [2, 4]: 0.15 µM·h; Cmax [2, 4]: 160 nM; Tmax [2, 4]: 30 min
CCC(C)CN1CCN(c2ccc(Nc3ncc4cc5n(c4n3)C3(CCCC3)CNC5=O)nc2)CC1 (stereo not shown) [FFF]	291	1370 nM	966	4540 nM	4.7 nM	EC50 ([1]; HS68 cells): 650 nM
CC1CN(c2ccc(Nc3ncc4cc5n(c4n3)C3(CCCC3)CNC5=O)nc2)CC(C)N1CCC(C)(C)C (stereo not shown) [PPP]	3402	2640 nM	21263	16500 nM	0.8 nM	EC50 ([1]; Homo sapiens, Hs68, HS68 cells): 275 nM
C[C@H](O)CN1CCN(c2ccc(Nc3ncc4cc5n(c4n3)C3(CCCC3)CNC5=O)nc2)C[C@H]1C [XX]	4838	6290 nM	5615	7300 nM	1.3 nM	
O=C1NCC2(CCCCC2)n2c1cc1cnc(Nc3ccc(N4CCC(N5CCC(C(F)(F)F)CC5)CC4)cn3)nc12 [X]	2058	1840 nM	12975	11600 nM	0.9 nM	

Further lines, with some results ahead:

Fold Selectivity (CDK2/CycA/CDK4) (CDK2/CyclinA; Table 2)	IC50 (CDK2/CyclinA; Table 2)	Fold Selectivity (CDK2/CycE/CDK4) (CDK2/CyclinE; Table 2)	IC50 (CDK2/CyclinE; Table 2)	IC50 (CDK4/CyclinD1)	SMILES	other results
918	2130 nM	2591	6010 nM	2.3 nM	CCC(C)CN1CCN(c2ccc(Nc3ncc4cc5n(c4n3)C3(CCCC3)CNC5=O)nc2)CC1 (stereo not shown) [AAA]	EC50 ([1]; HS68 cells): 275 nM
	857 nM		1460 nM		O=C1NCC2(CCCCC2)n2c1cc1cnc(Nc3ccc(N4CCC(N5CCOCC5)CC4)cn3)nc12 [Compound U, 2′-((5-(4-morpholinopiperidin-1-yl)pyridin-2-yl)amino)-7′,8′-dihydro-6′H-spiro[cyclohexane-1,9′-pyrazino[1′,2′:1,5]pyrrolo[2,3-d]pyrimidin]-6′-one]	IC50 (CDK2/CyclinA; Table 3): 857 nM; IC50 (CDK2/CyclinE; Table 3): 1460 nM; F ([2]; mouse): 67%; half-life [2, 3]: 180 min; half-life ([2]; mouse, plasma, po, 30 mg/kg, mouse, read-out: plasma half-life following oral administration): 180 to 300 min; bioavailability ([2]; mouse, plasma, po, 30 mg/kg, read-out: oral bioavailability (F (%))): 52 to 80%; AUC(0-inf) ([2]; plasma, mouse): 0.76 µM·h; clearance ([2]; plasma, mouse): 52 mL/min/kg; Vd ([2]; plasma, mouse): 3.4 L/kg; AUC [2, 4]: 3.3 µM·h; Cmax [2, 4]: 4200 nM; Tmax [2, 4]: 30 min
		589	4380 nM	7.4 nM	CCC(C)[C@@H]1CNC(=O)c2cc3cnc(Nc4ccc(N5CCN(C)CC5)cn4)nc3n21 (stereo partly shown) [VVV]	EC50 ([1]; Homo sapiens, Hs68, HS68 cells): 300 nM
25	61 nM	50	124 nM	2.5 nM	O=C1NCC2(CCCCC2)n2c1cc1cnc(Nc3ccc(C(=O)N4CCNCC4)cn3)nc12 [Y]	
205	647 nM	1174	3710 nM	3.2 nM	C[C@H](O)CN1[C@H](C)CN(c2ccc(Nc3ncc4cc5n(c4n3)C3(CCCCC3)CNC5=O)nc2)C[C@@H]1C [Z]	
